Experiment [1] has as its system mouse mesenchymal pre-osteoblastic cells (MC3T3-E1). As to the kind of experiment: Osteogenic differentiation of osteoblast progenitors (optical profilometry of extracellular matrix, Runx2 Q-PCR, Osteopontin immunostaining). The format is cell-based. The note with it: apatite ceramics or type-I collagen sponge coupled with peptide vs native type-I collagen sponge, 48 hours. Here is the method: The surface profiler system is a non-contact optical profiler that measures a wide range of surface heights. The vertical scanning interferometry mode allows for the measurement of rough surfaces and steps of up to several micrometers. This mode was used in order to measure the thickness of the extracellular matrix produced by the cells. First, after 24 h of culture, the cells were fixed with paraformaldehyde in PBS (4%) for 30 minutes at 4° C. and the samples were dehydrated in increasing concentrations of ethanol (30, 70, 80, 90, 95 and 100%) and critical-point dried. To evaluate the extent of the newly synthesized extracellular matrix, a spatula was used to scratch the surface of the materials. The samples were then metallized for 10 sec with gold or titanium before being analyzed.
The cells were first fixed for 20 min with 4% paraformaldehyde/PBS at 4° C. […]
Total RNA was extracted by using the RNeasy total RNA kit (Qiagen®) according to the manufacturer's instructions. […] Data were analyzed with the iCycler IQ™® software and compared by the ΔΔCt method. […]
The effect of the GFR-binding compounds as described herein (SEQ ID NO: 33) on the differentiation of osteoblast progenitors was evaluated. […]
An increase in the Runx2 gene expression after 24 hours of culture (FIG. 11) was observed by using Quantitative Real Time Polymerase Chain Reaction as described in the Methods section.

Experiment [2] has as its system Human umbilical-vein endothelial cells. As to the kind of experiment: Endothelialization: adherent junctions (CD31) of endothelial cells on PET. The format is cell-based. To be noted: PET covalently modified with peptide vs native PET, 36 hours. On the procedure: (§1) The polymer used in this study is poly(ethylene terephthalate) (PET). The polymers were first treated in order to create —COOH (carboxyl) functions on the PET surfaces from —OH (hydroxyl) functions. Next, the PET-COOH samples were immersed in a solution of dimethylaminopropyl-3-ethylcarbodiimide hydrochloride (EDC, 0.2 M)+N-hydroxysuccinimide (NHS, 0.1 M) in 2-(N-morpholino)-ethanesulfonic acid (MES) buffer (0.1 M in MilliQ water) and the samples were rinsed in MilliQ water (50 mL for 30 min). The same protocol was used for all the polymers containing —OH (hydroxyl) functions on their extreme surface. Finally, the covalent immobilization of the peptides was achieved by using a solution of peptides/1×PBS (C=10^−3 M) incubated for 18 hours at room temperature. After grafting, the materials were rinsed in MilliQ water (100 ml) for 1 week.
An increase in the area of the adherent junctions (CD31) was observed after 36 hours of culture on the covalently modified PET (FIG. 13).

Experiment [3] relates to hMSCs. Description: Loss of stemness: STRO-1 expression by immunostaining. The format is cell-based, human. To be noted: Table 8, SEQ ID NO: 1 to 49 tested in combination with a bioactive carrier (titanium, ceramics, collagen, etc.). The procedure, abridged:
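hMSCs cultured on plastic with GFR-binding peptides in solution (some sequences tested with a bioactive carrier), then fixed, permeabilized and immunostained for Stro-1. Stro-1-positive contact number and area quantified by thresholded image analysis, minimum 30 cells per condition.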

In experiment [4] the test system is hMSCs. As to the kind of experiment: Cartilage regeneration: chondrocyte differentiation of hMSCs on 14 kPa hydrogels (Sox9, Aggrecan). The experiment is classed as cell-based, human. The note with it: 14 kPa hydrogels covalently modified with peptides, 96 hours. On the procedure: Total RNA was extracted by using the RNeasy total RNA kit (Qiagen®) according to the manufacturer's instructions. Purified total RNA was used as a template in order to make cDNA by a reverse transcription reaction (Gibco Brl®) with random primers (Invitrogen®). The cDNA was then used as a template for a real-time PCR amplification in the presence of SYBR green reagents (Bio-Rad®) by using a thermocycler (iCycler, Biorad®). Data were analyzed with the iCycler IQ™® software and compared by the ΔΔCt method. […]
Total RNA was extracted by using the RNeasy Mini Kit (Qiagen) and […] RNA was used for cDNA synthesis with AMV kit (Invitrogen®) according to the manufacturer' instructions. Semi-quantitative reverse transcriptase-polymerase chain reaction (RT-PCR) was performed with Taq DNA Polymerase (Invitrogen®) in a thermocycler (Bio-Rad®). […] The PCR products were analyzed on 2% agarose gels. For the Aggrecan gene, the PCR bands were densitometrically quantified by using the BioCapt software (Vilber). […]
It was then verified that these hMSCs cultured on the covalently modified hydrogels were differentiated into chondrocyte cells by analyzing the expression of the chondrocyte gene biomarker: Aggrecan. […] For that a semi-quantitative RT-PCR was performed as described in the Methods section for the Aggrecan gene and a Quantitative Real Time PCR for Sox9.

In experiment [5] the test system is Human Mesenchymal Stem Cells (hMSCs). Description: Osteogenic differentiation of human mesenchymal stem cells (Runx2/Osterix immunostaining, ALP activity). The format is cell-based. To be noted: type-I collagen sponge coupled with peptide, 1 week of culture.
Experiment [6] deals with Neurons (Neuronal Schwann Cells). As to the kind of experiment: Neuron growth on titanium (dendrite growth, GAP43 Q-PCR). The format is cell-based. The note with it: titanium covalently modified with peptide.
Excerpt: […]

The test system of experiment [7] is Human umbilical-vein endothelial cells. As to the kind of experiment: Angiogenesis: tube-like structure formation on PET. The experiment is classed as cell-based. To be noted: PET covalently modified with peptide, 18 hours. On the procedure:
as §1

Where no end group is shown, it is not given here.

“WWFWGASSAVSQELSAISMLYLGGGLKNYQDMQHN (GFR-binding peptide) [SEQ ID NO: 33]”: the “production of extracellular matrix proteins such as Osteopontin (OPN)” value in experiment [1] is listed as “extensive amounts”.

On to “CVPTEERSVKVAKVRIKPHQGQHKEVQV (GFR-binding peptide) [SEQ ID NO: 38]”, for which, in experiment [2], the “area of the adherent junctions (CD31)” value is on record as “increase”.

Turning to “37 (CASAAPSSVPQALEPLPIVYYVGRTPKVEQLSNMIVRSSK; not fully specified; ends and bridges not checked) [compound 37]”, the “STRO-1 expression (%)” value in the experiment with hMSCs [3] was 21%. Moreover, in the experiment with hMSCs [4], the Sox9 protein expression result is given as “expression of the Sox9 protein was observed”.

In the case of “WWFWGKASSVPTELSPISTLYKDENEKVVLKYHYDMVVEGSGSR (WWFWGKASSVPTELSPISTLYKDENEKVVLKYHYDMVVEGXGXR; GFR-binding peptide; MOD_RES (41), (43): Xaa is C or S) [SEQ ID NO: 32]”, in experiment [5], the “ALP (Alkaline Phosphatase) activity” value is “increase”.

As for “CTVPKPSSAPTQLSPISILYIDAANNVVYKQYEDMVVRA (CTVPKPXXAPTQLSPISILYIDAANNVVYKQYEDMVVRA; GFR-binding peptide; MOD_RES (7), (8): Xaa is C or S) [SEQ ID NO: 49]”, the “establishment of cell-cell contacts via dendrite growth” value in experiment [6] (6 hours) was “rapid establishment”. Moreover, the “Growth Associated Protein 43 (GAP43) gene expression (Q-PCR)” value in experiment [6] (48 hours) is “high level of expression”.

For the substance “CKIPKASSVPTELEPLPIVYYVGRKPKVEQLSNMIVRS (CKIPKAXXVPTELEPLPIVYYVGRKPKVEQLSNMIVRS; GFR-binding peptide; MOD_RES (7), (8): Xaa is C or S) [SEQ ID NO: 36]”, the Sox9 protein expression result in the experiment on hMSCs [4] was “expression of the Sox9 protein was observed”.

Regarding “CVPTEESNITMQIMRIKPHQGQHIGEMSFL (GFR-binding peptide) [SEQ ID NO: 39]”, the “formation of tube-like structures” value in experiment [7] was “formation of tube-like structures was observed”.

Values taken from patent US20220267394A1, “COMPOUNDS FOR INDUCING TISSUE FORMATION AND USES THEREOF” (HISTIDE AG, priority 2015, published 2022).
